Consider 11 compounds from patent publication US11427531B2, “Modulators of potassium ion and TRPV1 channels and uses thereof” (Ramot at Tel-Aviv University Ltd., priority 2017, dated 2022).

pEC50, pIC50: −log10 of the molar value. Like-named read-outs stand apart in the source and are kept apart here.

A word on the inhibition: it is the change of the read-out against control, counted positive when it falls. What is called pIC50 is the IC50 on a negative log10 scale, so that one unit is a factor of ten. The term pEC50 denotes the EC50 on a negative log10 scale, so that one unit is a factor of ten.

Experiment [1] concerns DRG neuron spike discharge triggered by activation of TRPV1 channels by capsaicin. Put plainly: Capsaicin-evoked DRG neuron spike discharge. In kind it is cell-based. How it is done:
(§1) For current-clamp recordings in DRG neurons, the patch pipettes were filled with (in mM): 135 KCl, 1 K2ATP, 1 MgATP, 2 EGTA, 1.1 CaCl2, 5 glucose (free [Ca^2+]i=87 nM), 10 HEPES, adjusted with KOH at pH 7.4 (315 mOsm). The external solution contained (in mM): 150 NaCl, 2.5 KCl, 2 CaCl2, 2 MgCl2, 15 glucose, 10 HEPES, adjusted with NaOH at pH 7.4 (325 mOsm). Drug exposure was evoked by rapid application using a fast perfusion system (AutoMate Scientific).
The dual targeting and the synergistic effect of NH91 is further illustrated in FIGS. 17A-B and 18A-B, by its effect on the DRG neuron spike discharge triggered by the activation of TRPV1 channels by 1 μM capsaicin.

The subject of experiment [2] is nociceptive dorsal root (DRG) sensory neurons. Briefly: Current-clamp recording of evoked spike discharge in DRG neurons. Format: cell-based, rat. The method, then:
Inhibition of the evoked spike discharge of nociceptive dorsal root (DRG) sensory neurons was tested as follows:
as §1

Experiment [3] concerns the target T1, recombinant TRPV1 channel (Homo sapiens, UniProt Q8NER1).
T1 construct: expressed in transfected cells; host or cells: CHO cells
Put plainly: Whole-cell recording of capsaicin-activated recombinant TRPV1 currents in transfected CHO cells. In kind it is cell-based. The method, then:
(§2) For Kv7.2 potassium current recordings, the patch pipettes were pulled from borosilicate glass (Warner Instrument Corp) with a resistance of 3-7 MΩ, and were filled with (in mM): 130 KCl, 5 Mg ATP, 5 EGTA, 10 HEPES, pH 7.3 (adjusted with KOH), and sucrose was added to adjust osmolarity to 290 mOsmol. The external solution contained (in mM): 140 NaCl, 4 KCl, 1.2 MgCl2, 1.8 CaCl2, 11 glucose, 5.5 HEPES, pH 7.3 (adjusted with NaOH), and sucrose was added to adjust osmolarity to 310 mOsmol. […] For TRPV1 current recordings, the solutions were the same as those used for Kv7.2, except that the extracellular solution contained no CaCl2 to limit desensitization and included 1 mM EGTA and 1 mM MgCl2.
Inhibition of recombinant TRPV1 channel was tested as described in Example 2 hereinabove.
TRPV1 whole-cell currents were activated by exposing transfected CHO cells to 0.5 μM capsaicin at a holding potential of −60 mV.
FIG. 9 presents the effect of 5 μM NH66 on recombinant TRPV1 currents activated by 0.1 μM capsaicin (CAP). In FIG. 9 are shown the TRPV1 currents evoked by application of 0.1 μM capsaicin to transfected CHO cells. In the upper panel are shown the currents only evoked by application of 0.1 μM capsaicin; in the middle panel, are shown the currents first evoked by application of 0.1 μM capsaicin+5 μM NH66, then by 0.1 μM capsaicin only.

In experiment [4] the target is T2, recombinant Kv7.2/3 channels (Homo sapiens, UniProt O43525+O43526).
T2 construct: expressed in transfected cells; host or cells: CHO cells
Put plainly: Whole-cell patch clamp of recombinant Kv7.2/3 currents in transfected CHO cells. In kind it is cell-based. The following applies: for V50 (parameter of potency for Kv7.2/3 At 5 μM): compound at 5 μM, N = 5-12; for pEC50: N = 5-10; for increase of the amplitude of recombinant Kv7.2/3 currents: 5 μM compound, at −40 mV, CHO cells. How it is done: Chinese hamster ovary CHO cells were grown in Dulbecco's modified Eagle's medium supplemented with 2 mM glutamine, 10% fetal calf serum, and antibiotics. In brief, 40,000 cells seeded on poly-D-lysine-coated glass coverslips (13 mm in diameter) in a 24-multiwell plate were transfected with pIRES-CD8 (0.3 μg) as a marker for transfection with 0.5 μg Kv7.2 and 0.5 μg Kv7.3. Transfection was performed using 3.6 μl of X-tremeGENE 9 (Roche) according to the manufacturer's protocol. For electrophysiology, transfected cells were visualized approximately 40 h after transfection, using the anti-CD8 antibody coated beads method.
as §2
Chinese hamster ovary CHO cells were grown in Dulbecco's modified Eagle's medium supplemented with 2 mM glutamine, 10% fetal calf serum, and antibiotics. In brief, 40,000 cells seeded on poly-D-lysine-coated glass coverslips (13 mm in diameter) in a 24-multiwell plate were transfected with pIRES-CD8 (0.3 μg) as a marker for transfection with 0.5 μg of Kv7.2 and Kv7.3 cDNA plasmids. Transfection was performed using 3.6 μl of X-tremeGENE 9 (Roche) according to the manufacturer's protocol. For electrophysiology, transfected cells were visualized approximately 40 h after transfection, using the anti-CD8 antibody coated beads method. Recordings were performed using the whole cell configuration of the patch clamp technique. Signals were amplified using an Axopatch 200B patch-clamp amplifier (Axon Instruments), sampled at 5 kHz and filtered at 2.4 kHz via a four pole Bessel low pass filter. Data were acquired using pClamp 10.5 software in conjunction with a DigiData 1440A interface. The patch pipettes were pulled from borosilicate glass (Harvard Apparatus) with a resistance of 3-7 megaohms. The intracellular pipette solution contained 130 mM KCl, 5 mM K2-ATP, 5 mM EGTA (or 5 mM BAPTA when indicated), 10 mM HEPES, pH 7.3 (adjusted with KOH), CaCl2 (as needed for different values of free Ca2+ concentration according to MAXCHELATOR software, with sucrose added to adjust osmolarity to 290 mosmol. The external solution contained 140 mM NaCl, 4 mM KCl, 1.8 mM CaCl2, 1.2 mM MgCl2, 11 mM glucose, 5.5 mM HEPES, adjusted with NaOH to pH 7.3 (310 mOsM). Series resistances were compensated (75-90%) and periodically monitored. Data analysis was performed using the Clampfit program (pClamp 10.5; Axon Instruments), Microsoft Excel (Microsoft, Redmond, Wash.), and Prism 5.0 (GraphPad Software, Inc., San Diego, Calif.). Leak subtraction was performed off-line, using the Clampfit program of the pClamp 10.5 software.
The normalized conductance was plotted as a function of the test voltages, for cells in the absence and presence of the drug. Chord conductance (G) was calculated by using the following equation: G=I/(V−Vrev), where I corresponds to the current amplitude measured at the end of the pulse, and Vrev is the calculated reversal potential assumed to be −90 mV in CHO cells. G was estimated at various test voltages (V) and then normalized to a maximal conductance value, Gmax. Activation curves were fitted by one Boltzmann distribution: G/Gmax=1/{1+exp[(V50−V)/s]}, where V50 is the voltage at which the current is half-activated and s is the slope factor.
A general note: In patch-clamp work, channel activity is measured electrically.

Another experiment has as its target cardiac Herg channel (Homo sapiens, UniProt Q12809). Briefly: Cardiac channel Herg current recordings.
For experiment [5], the system named is inward voltage-dependent Ca2+ and Na+ current in DRG neurons. Put plainly: Inward voltage-dependent Ca2+ and Na+ current in DRG neurons. In kind it is cell-based. As to conditions: 5 μM.
The mark [6] stands for this setting: N = 5-10, Retigabine: No effect at 30, read-out: IC50 on TRPV1.
Setting [7] is: Rattus norvegicus, Neuron, N = 5-10, read-out: IC50 on inhibition of evoked spike discharge in DRG sensory neurons.
[8] abbreviates: DRG neuron, rat DRG neurons, read-out: IC50 of inhibition of evoked spike discharge of nociceptive DRG sensory neurons.

T1 sequence (Q8NER1 whole entry): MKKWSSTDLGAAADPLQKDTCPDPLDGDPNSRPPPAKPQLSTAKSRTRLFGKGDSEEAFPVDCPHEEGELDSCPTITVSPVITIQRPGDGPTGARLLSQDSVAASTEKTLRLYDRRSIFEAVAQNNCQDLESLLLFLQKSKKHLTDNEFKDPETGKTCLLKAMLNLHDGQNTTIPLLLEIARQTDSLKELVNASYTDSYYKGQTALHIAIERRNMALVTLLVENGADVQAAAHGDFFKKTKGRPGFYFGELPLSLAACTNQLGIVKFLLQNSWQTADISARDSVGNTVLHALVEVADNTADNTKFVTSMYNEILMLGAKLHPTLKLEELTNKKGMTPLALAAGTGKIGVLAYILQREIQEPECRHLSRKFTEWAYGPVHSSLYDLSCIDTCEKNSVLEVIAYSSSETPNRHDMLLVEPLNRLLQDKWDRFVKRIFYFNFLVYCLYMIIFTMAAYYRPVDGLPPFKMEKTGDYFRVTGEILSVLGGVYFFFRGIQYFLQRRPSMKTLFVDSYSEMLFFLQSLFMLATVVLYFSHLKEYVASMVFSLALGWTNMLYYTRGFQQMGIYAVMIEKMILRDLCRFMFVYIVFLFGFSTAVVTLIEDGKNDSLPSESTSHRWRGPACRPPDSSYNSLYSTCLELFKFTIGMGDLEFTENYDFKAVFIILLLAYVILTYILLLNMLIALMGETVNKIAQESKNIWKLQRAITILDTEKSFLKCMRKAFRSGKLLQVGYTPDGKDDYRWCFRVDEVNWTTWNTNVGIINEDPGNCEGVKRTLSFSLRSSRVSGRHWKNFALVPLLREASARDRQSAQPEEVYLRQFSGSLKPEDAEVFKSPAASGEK
Sequence of cardiac Herg channel (Q12809 whole entry): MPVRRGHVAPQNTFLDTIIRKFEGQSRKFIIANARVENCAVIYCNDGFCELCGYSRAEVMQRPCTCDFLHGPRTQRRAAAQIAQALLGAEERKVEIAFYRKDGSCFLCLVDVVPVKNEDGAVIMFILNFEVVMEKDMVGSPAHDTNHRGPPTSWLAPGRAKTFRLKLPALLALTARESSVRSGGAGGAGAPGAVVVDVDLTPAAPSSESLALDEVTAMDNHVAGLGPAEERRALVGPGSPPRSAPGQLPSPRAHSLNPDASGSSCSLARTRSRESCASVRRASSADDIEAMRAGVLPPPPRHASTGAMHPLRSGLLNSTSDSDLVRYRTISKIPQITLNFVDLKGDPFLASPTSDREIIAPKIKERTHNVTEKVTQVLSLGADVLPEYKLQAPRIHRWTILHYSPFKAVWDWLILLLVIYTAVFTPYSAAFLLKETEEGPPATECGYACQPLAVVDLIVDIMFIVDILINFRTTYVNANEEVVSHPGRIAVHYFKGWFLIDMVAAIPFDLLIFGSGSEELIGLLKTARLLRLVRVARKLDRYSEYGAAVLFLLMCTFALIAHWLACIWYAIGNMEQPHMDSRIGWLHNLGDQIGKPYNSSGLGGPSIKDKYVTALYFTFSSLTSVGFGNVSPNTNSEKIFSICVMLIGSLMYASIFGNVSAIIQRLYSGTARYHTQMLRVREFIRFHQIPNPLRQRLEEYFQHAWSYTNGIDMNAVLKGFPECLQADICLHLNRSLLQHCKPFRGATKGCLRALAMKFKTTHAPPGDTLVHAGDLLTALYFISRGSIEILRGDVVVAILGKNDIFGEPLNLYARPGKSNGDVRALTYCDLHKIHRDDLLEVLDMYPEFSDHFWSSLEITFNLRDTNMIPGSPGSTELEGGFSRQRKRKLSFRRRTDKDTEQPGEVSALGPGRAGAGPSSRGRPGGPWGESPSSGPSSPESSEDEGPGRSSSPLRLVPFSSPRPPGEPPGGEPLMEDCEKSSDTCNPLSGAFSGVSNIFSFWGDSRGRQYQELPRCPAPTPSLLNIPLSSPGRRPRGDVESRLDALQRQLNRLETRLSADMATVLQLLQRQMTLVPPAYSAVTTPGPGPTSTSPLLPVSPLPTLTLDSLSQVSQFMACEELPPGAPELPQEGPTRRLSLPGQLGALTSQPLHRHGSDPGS
Description for cardiac Herg channel: Cardiac channel Herg current recordings were performed as follows:
Cells were held at −90 mV and stepped for 1.5 s from −70 mV to +30 mV in 10 mV increments and repolarized at −60 mV.

In the case of `CC(=O)Nc1nc2c(Oc3cc(-c4ccc(C(F)(F)F)cc4)ncn3)cccc2s1` [AMG 517, reference compound], the inhibition at 0.1 µM in experiment [1] (DRG neuron, read-out: inhibition of capsaicin-evoked DRG spikes) is 42%.

Consider `O=C(Cc1cc([N+](=O)[O-])cc([N+](=O)[O-])c1Nc1c(Cl)cc([N+](=O)[O-])cc1Cl)NCCO` [NH29, reference compound], for which the negative logarithm of the IC50 (pIC50) in experiment [2] (Rattus norvegicus, Neuron, read-out: IC50 on inhibition of evoked spike discharge in DRG sensory neurons) is 4.74; in experiment [3] (setting [6]), 5.38; against cardiac Herg channel it was 5.30. Also, in experiment [4], the “V50 (parameter of potency for Kv7.2/3 At 5 μM)” value was −27.4 mV.

For the compound `O=C(Cc1ccc(Nc2c(Cl)cc(C(F)(F)F)cc2Cl)cc1)NCCO` [NH34, reference compound], the figures for the negative-log IC50 (pIC50) (in experiment [2] (setting [7]); in experiment [3] (setting [6]); against cardiac Herg channel) were 4.60, 4.26 and 4.46, respectively. The negative logarithm of the EC50 (pEC50) in experiment [4] is 4.76. Also, in experiment [4], the “V50 (parameter of potency for Kv7.2/3 At 5 μM)” value is on record as −28.1 mV.

For the compound `O=C(Cc1cc(Nc2c(Cl)cc(Cl)cc2Cl)ccc1F)NCCO` [NH43, reference compound], the negative-log IC50 (pIC50) in experiment [2] (setting [8]) was 6.52; in experiment [2] (setting [7]) it was 6.52; in experiment [3] (setting [6]) it was 6.40; at cardiac Herg channel, below 4.22. The “increase of the amplitude of recombinant Kv7.2/3 currents” value in experiment [4] was “about 3.5 fold”. Moreover, the negative-log EC50 (pEC50) in experiment [4] was 6.22. For the same compound, in experiment [4], the “V50 (parameter of potency for Kv7.2/3 At 5 μM)” value is given as −42.0 mV.

On to `CC(C)(O)CNC(=O)Cc1cc(Nc2c(Cl)cc(Cl)cc2Cl)ccc1F` [NH66], for which the negative-log IC50 (pIC50) in experiment [2] (setting [8]) is 6.30; in experiment [2] (setting [7]), 6.30; in experiment [3] (currents activated by 0.1 μM capsaicin, read-out: IC50 of inhibition of recombinant TRPV1 currents), 6.52; on cardiac Herg channel, below 4.22. Further, the “increase of the amplitude of recombinant Kv7.2/3 currents” value in experiment [4] is given as “about 3.5 fold”. In addition, the negative-log EC50 (pEC50) in experiment [4] was 6.00. Further, the “V50 (parameter of potency for Kv7.2/3 At 5 μM)” value in experiment [4] is listed as −30.3 mV.

With `CC(C)(CO)CNC(=O)Cc1cc(Nc2c(Cl)cc(Cl)cc2Cl)ccc1F` [NH82], the negative logarithm of the IC50 (pIC50) in experiment [2] (setting [7]) is 6.30; in experiment [3] (setting [6]), 6.40; on cardiac Herg channel, below 4.00. Besides, the pEC50 in experiment [4] was 6.30. Besides, the “V50 (parameter of potency for Kv7.2/3 At 5 μM)” value in experiment [4] is recorded as −41.1 mV.

On to `CC(C)(O)CCNC(=O)Cc1cc(Nc2c(Cl)cc(Cl)cc2Cl)ccc1F` [NH83], for which, in experiment [2], the “effect on DRG evoked spike discharge (in words)” value is reported as “slightly improved activity”. The pIC50 was 6.70 in experiment [2] (setting [7]) and 6.10 in experiment [3] (setting [6]). For the same compound, the pEC50 in experiment [4] is 6.22. Also, the “V50 (parameter of potency for Kv7.2/3 At 5 μM)” value in experiment [4] is given as −37.3 mV.

In the case of `CC(C)c1cc(Cl)cc(Cl)c1Nc1ccc(F)c(CC(=O)NCC(C)(C)O)c1` [NH91], the “effect on DRG evoked spike discharge (in words)” value in experiment [2] is given as “prominently inhibits”. Also, in experiment [2] (setting [7]), the pIC50 was 6.00. Also, in experiment [3] (setting [6]), the negative-log IC50 (pIC50) is 7.00. Further, in experiment [1] (Kv7.2/3 channel blocker XE991 10 μM present, n=11), the “inhibition of capsaicin-evoked DRG spike discharge in the presence of XE991” value was 50%. In addition, in experiment [4], the “effect on amplitude at −40 mV and voltage-dependence of Kv7.2/3 channels (in words)” value (shortened to “effect on amplitude”) is given as “potently increase the amplitude left-shift the voltage-dependence of activation”; the pEC50 is 5.70; the “V50 (parameter of potency for Kv7.2/3 At 5 μM)” value is −42.4 mV. Besides, the pIC50 on cardiac Herg channel is below 4.22. Moreover, in experiment [5], the “effect on inward voltage-dependent Ca2+ and Na+ current in DRG neurons” value is reported as “did not affect”.

On to `CC(C)(O)CCNC(=O)Cc1cc(Nc2c(Cl)cc(Cl)cc2C2CC2)ccc1F` [NH101], for which the negative-log IC50 (pIC50) is 6.70 in experiment [2] (setting [7]), 7.00 in experiment [3] (setting [6]) and below 4.30 against cardiac Herg channel. Moreover, in experiment [4], the “effect on amplitude” value is recorded as “potently increase the amplitude left-shift the voltage-dependence of activation”. In addition, the pEC50 in experiment [4] was 6.70. Also, the “V50 (parameter of potency for Kv7.2/3 At 5 μM)” value in experiment [4] is given as −67.4 mV.

As to `O=C(Cc1cc(Nc2c(Cl)cc(Cl)cc2Cl)ccc1F)NC1CCC(O)C1` (stereo not shown) [NH110], in experiment [2], the “effect on DRG evoked spike discharge (in words)” value was “inhibits”. Besides, the pIC50 in experiment [2] (setting [7]) was 6.70. For the same compound, in experiment [4], the “effect on amplitude” value is listed as “potently increase the amplitude left-shift the voltage-dependence of activation”; the negative-log EC50 (pEC50) was 5.14; the “V50 (parameter of potency for Kv7.2/3 At 5 μM)” value is −38.5 mV.

On to `CCOC(=O)Nc1ccc(NCc2ccc(F)cc2)cc1N` [Retigabine, N-(2-amino-4-(4-fluorobenzylamino)-phenyl)carbamic acid ethyl ester, reference compound], for which the results for the negative-log IC50 (pIC50) (in experiment [2] (setting [7]); against cardiac Herg channel) were 5.30 and below 4.52, respectively. Further, the “IC50 on TRPV1” value in experiment [3] (N = 5-10, Retigabine: No effect at 30) is “No effect”. Besides, the “V50 (parameter of potency for Kv7.2/3 At 5 μM)” value in experiment [4] is −30.4 mV.
